# “And” between values parts separate entries of the source, which are not always exact repeats. Equal values may be shown once. Read-outs that look alike come from different tables or passages of the source.
# How the values were obtained:
# [1] = tested on: metrazole induced clonic seizures; test: Subcutaneous metrazol seizure threshold test (scMet) in rats; conditions: for ED50: Rattus norvegicus; for Fraction of rats which responded to the treatment: scMet rat model; for ScMet, fraction of rats: rat p.o, 50 mg/kg
# [2] = tested on: hippocampal kindled seizures; test: Hippocampal kindling assay in rats; format: in vivo; conditions: Rattus norvegicus
# Experimental: In a third model, the hippocampal kindling assay was used to identify new drug candidates effective for the treatment of difficult-to-control seizure types, focal seizures and complex partial seizures, as well as compounds that may be effective as mood stabilizer for treating bipolar disorder, and was conducted according to the protocol described therein.
# Briefly, this test was conducted by using a bipolar stimulating electrode which was implanted in the hippocampus of rats, and the rats were kindled according to a described method. One week after implantation of the electrodes, the rats were stimulated with supra-threshold trains of 200 μA and 50 Hz for 10 seconds every 30 minutes for 6 hours on alternate days until the animals were fully kindled. […] The behavioral seizures were scored according to the following criteria (“seizure score”): stage 1—mouth and facial clonus; stage 2—stage 1 plus head nodding; stage 3—stage 2 plus forelimb clonus; stage 4—stage 3 plus rearing; and stage 5—stage 4 plus repeated rearing and falling.
# minimal neurotoxicity [3] = test: Neurotoxicity (gait and stance assay, TD50) in rats; format: in vivo, rat; conditions: for Toxicity, fraction of rats: rat p.o, 50 mg/kg
# Experimental: (§1) Neurotoxicity assays are design to assess the effect of putative neurotoxicants on the normal activity of the nervous system, which can adversely disrupt or cause neuronal death, and damage other parts of the nervous system. The median neurological toxic dose (TD50) is used for quantization of neurotoxicity.
# The neurotixicity studies were conducted according to the protocol described in White, H. S., et al., in “General principles. Discovery and preclinical development of antiepileptic drugs”, 5th edition, Levy R H, Mattson R H, Meldrum B S, Perucca E. (editors); Antiepileptic drugs; Lippincott-Raven; Philadelphia: 2002. pp. 36-48.
# Neurotoxicity of the α-halo-2,2,3,3-tetramethylcyclopropanecarboxy compounds of the present embodiments was assessed in rats treated therewith by oral administration and observed in the “gait and stance” assay, which assesses minimal neurotoxicity. The neurotoxicity studies were conducted according to the protocol described in White H S. et al., General principles-Discovery and preclinical development of antiepileptic drugs, in: Antiepileptic Drugs, 5th edition, R H Wilkins, Philadelphia 2002, pp. 36-48.
# motor impairment = test: Toxicity observed in mice (6 Hz 44 mA test line of Table 3); format: in vivo
# Excerpt: as §1
# 6 Hz (44 mA) seizures = test: Psychomotor seizure (6 Hz, 44 mA) assay in mice; format: in vivo; conditions: Mus musculus
# 6 Hz (32 mA) seizures = test: Psychomotor seizure (6 Hz, 32 mA) assay in mice; format: in vivo; conditions: Mus musculus
# [4] = tested on: maximal electroshock induced seizures (tonic hind limb extension); test: Maximal electroshock seizure test (MES) in rats; format: in vivo; conditions: rat p.o, 50 mg/kg
# [5] = tested on: metrazole induced clonic seizures; conditions: cited from earlier work; for protective index (TD50/ED50): comparison compounds, seizure model not stated
# neuropathic pain = conditions: spinal nerve ligated rat models; cited from earlier work
# minimal neurotoxicity [6] = conditions: cited from earlier work
# [7] = tested on: maximal electroshock induced seizures (tonic hind limb extension); conditions: cited from earlier work
# [8] = tested on: maximal electroshock induced seizures; conditions: mice models injected intraperitoneally; cited from earlier work
# teratogenicity = test: Mouse model for VPA-induced teratogenicity; conditions: unpublished results
# [9] = rat scMet models, literature comparison
smiles,measurement,setting,value
"CC1(C)C(C)(C)C1(F)C(N)=O [Compound 1, α-fluoro-2,2,3,3-tetramethylcyclopropanecarboxamide]",ED50,[1]; po,6 mg/kg and 40 µmol/kg
same,protective index (TD50/ED50),"[1]; rat, in vivo, po",19.5
same,Fraction of rats which responded to the treatment,[1]; dose 2 mg/kg,0/8
same,Fraction of rats which responded to the treatment,[1]; dose 6 mg/kg,5/8
same,Fraction of rats which responded to the treatment,[1]; dose 12.5 mg/kg,6/8
same,Fraction of rats which responded to the treatment,[1]; dose 25 mg/kg,8/8
same,ED50,[2],29.5 mg/kg and 180 µmol/kg
same,Toxicity (TD50),"minimal neurotoxicity [3]; rats, oral administration",117 mg/kg
same,Toxicity,motor impairment,Minimal motor
same,ED50,6 Hz (44 mA) seizures,~50 mg/kg and ~310 µmol/kg
same,ED50,6 Hz (32 mA) seizures,< 50 mg/kg and < 310 µmol/kg
"CC1(C)C(C)(C)C1(C)C(N)=O [Compound 4, 1,2,2,3,3-pentamethylcyclopropanecarboxamide]",ED50,"[1]; sc, read-out: ED50 (not determined quantitatively, estimated)",< 50 mg/kg
same,"ScMet, fraction of rats",[1]; 0.25 hours after dosing,0/4
same,"ScMet, fraction of rats",[1]; 0.5 hours after dosing,0/4
same,"ScMet, fraction of rats",[1]; 1.0 hours after dosing,1/4
same,"ScMet, fraction of rats",[1]; 2.0 hours after dosing,1/4
same,"ScMet, fraction of rats",[1]; 4.0 hours after dosing,0/4
same,"MES, fraction of rats",[4]; 0.25 hours after dosing,0/4
same,"MES, fraction of rats",[4]; 0.5 hours after dosing,0/4
same,"MES, fraction of rats",[4]; 1.0 hours after dosing,0/4
same,"MES, fraction of rats",[4]; 2.0 hours after dosing,0/4
same,"MES, fraction of rats",[4]; 4.0 hours after dosing,0/4
same,"Toxicity, fraction of rats",minimal neurotoxicity [3]; 0.25 hours after dosing,0/4
same,"Toxicity, fraction of rats",minimal neurotoxicity [3]; 0.5 hours after dosing,0/4
same,"Toxicity, fraction of rats",minimal neurotoxicity [3]; 1.0 hours after dosing,0/4
same,"Toxicity, fraction of rats",minimal neurotoxicity [3]; 2.0 hours after dosing,0/4
same,"Toxicity, fraction of rats",minimal neurotoxicity [3]; 4.0 hours after dosing,0/4
"CNC(=O)C1C(C)(C)C1(C)C [Compound IV, N-methyl-2,2,3,3-tetramethylcyclopropanecarboxamide]",protective index (TD50/ED50),[5],2
same,potency as therapeutic for neuropathic pain,neuropathic pain,equipotent to GABApentin
same,neurotoxicity,"minimal neurotoxicity [6]; rat, in vivo",non-neurotoxic
"CONC(=O)C1C(C)(C)C1(C)C [Compound VI, N-methoxy-2,2,3,3-tetramethylcyclopropanecarboxamide]",ED50,"[5]; scMet tests, rats injected intraperitoneally",9.8 mg/kg
same,ED50,"[7]; MES tests, rats injected intraperitoneally",57 mg/kg
"CC1(C)C(C(=O)Nc2nnc(S(N)(=O)=O)s2)C1(C)C [Compound VII, N-(1,3,4-thiadiazole-2-sulfonamide)-2,2,3,3-tetramethylcyclopropanecarboxamide]",MES-ED50,[8],17 mg/kg
same,MES-ED50,[7]; orally treated rat models,9.2 mg/kg
same,teratogenicity,teratogenicity,teratogenic
same,neurotoxicity,minimal neurotoxicity [6]; at 500 mg/kg doses,none-neurotoxic
"CC1(C)C(C(=O)NCC(N)=O)C1(C)C [N-2,2,3,3-tetramethylcyclopropylcarbonyl-glycinamide]",protective index (TD50/ED50),[5],higher than 6.1
same,ED50,[5]; [9],greater than 250 mg/kg
same,TD50,"minimal neurotoxicity [6]; oral administration to rats, literature comparison",above 500 mg/kg
"CC1(C)C(C(=O)NC(N)=O)C1(C)C [TMC-Urea, 2,2,3,3-tetramethylcyclopropanecarbonyl urea]",protective index (TD50/ED50),[5],18.5
same,ED50,[5]; [9],92 mg/kg
same,"protective index, TD50-to-ED50 ratio",[7]; maximal electroshock (MES) tests,18.5
